Experimental findings from ChEMBL document CHEMBL1147859, “Thienopyrimidinone bis-aminopyrrolidine ureas as potent melanin-concentrating hormone receptor-1 (MCH-R1) antagonists” (Bioorg Med Chem Lett, 2007) are described below.

The target of series [1] is T1, Melanin-concentrating hormone receptor 1 (Homo sapiens, UniProt Q99705). Briefly: Antagonist activity at human MCHR1 by [35S]GTP-gamma-S binding assay. In kind it is functional.
Series [2] addresses T1, Melanin-concentrating hormone receptor 1. As to the kind of experiment: Binding affinity to human MCHR1.
For a further series, the target named is Cytochrome P450 2D6 (Homo sapiens, UniProt P10635). Briefly: Inhibition of CYP2D6. The format is ADME. As to conditions: for Activity: human.
Series [3] in a line: Intrinsic clearance in human liver microsome. Particulars: liver microsomes. In kind it is ADME. (Liver microsomes are a subcellular fraction often used to study metabolism.)
A further series concerns the target CYP2D6 (Homo sapiens, UniProt P10635). Briefly: Inhibition of CYP2D6 at 120 uM. The format is ADME.

Chain of Cytochrome P450 2D6 (P10635 whole entry): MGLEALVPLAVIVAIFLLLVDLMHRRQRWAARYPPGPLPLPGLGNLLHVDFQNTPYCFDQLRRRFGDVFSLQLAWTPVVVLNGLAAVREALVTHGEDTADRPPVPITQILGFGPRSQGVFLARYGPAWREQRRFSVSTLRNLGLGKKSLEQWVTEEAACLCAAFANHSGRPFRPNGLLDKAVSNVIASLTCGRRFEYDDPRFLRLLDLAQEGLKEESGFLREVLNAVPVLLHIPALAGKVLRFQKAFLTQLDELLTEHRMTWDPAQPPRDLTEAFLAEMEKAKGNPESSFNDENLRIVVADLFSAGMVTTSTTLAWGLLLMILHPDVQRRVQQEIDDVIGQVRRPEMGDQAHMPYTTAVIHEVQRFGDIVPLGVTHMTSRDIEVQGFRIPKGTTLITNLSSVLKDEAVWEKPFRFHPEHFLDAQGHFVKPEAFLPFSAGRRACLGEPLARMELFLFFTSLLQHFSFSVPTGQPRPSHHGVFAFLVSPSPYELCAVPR
T1 sequence (Q99705 whole entry): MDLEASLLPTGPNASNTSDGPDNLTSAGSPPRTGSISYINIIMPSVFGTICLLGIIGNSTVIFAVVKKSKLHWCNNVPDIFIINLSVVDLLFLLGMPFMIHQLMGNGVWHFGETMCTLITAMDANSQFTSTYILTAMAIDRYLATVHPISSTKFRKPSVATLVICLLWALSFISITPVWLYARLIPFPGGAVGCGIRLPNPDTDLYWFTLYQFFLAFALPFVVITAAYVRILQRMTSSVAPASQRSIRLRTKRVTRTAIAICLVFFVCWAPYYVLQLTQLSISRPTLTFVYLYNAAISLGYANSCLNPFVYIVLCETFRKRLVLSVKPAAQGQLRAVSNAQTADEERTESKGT
Chain of CYP2D6 (P10635 whole entry): as the sequence (P10635 whole entry) above

For `CN(C(=O)N1CC[C@H](n2cnc3cc(-c4ccc(Cl)cc4)sc3c2=O)C1)[C@H]1CCN(CC2CC2)C1`, the IC50 in series [1] stood at 10 nM. The same molecule returned a Ki in series [2] of 3 nM.

In series [1], `CN(C(=O)N1CC[C@H](n2cnc3cc(-c4ccc(Cl)cc4)sc3c2=O)C1)[C@H]1CCN(Cc2ccoc2)C1` had an IC50 of 15 nM. Also, the Ki in series [2] was determined as 4 nM.

`Cc1ccc(-c2cc3ncn([C@H]4CCN(C(=O)N(C)[C@H]5CCN(C)C5)C4)c(=O)c3s2)cc1` had a Ki in series [2] of 15 nM.

Molecule `CN1CC[C@H](N(C)C(=O)N2CC[C@H](n3cnc4cc(-c5ccc(C(F)(F)F)cc5)sc4c3=O)C2)C1` came in with an inhibition constant (Ki) in series [2] of 17 nM.

The molecule `CC(C)N1CC[C@H](N(C)C(=O)N2CC[C@H](n3cnc4cc(-c5ccc(Cl)cc5)sc4c3=O)C2)C1` registered an IC50 in series [1] of 23 nM. The Ki in series [2] amounted to 5 nM.

On to `CN(C(=O)N1CC[C@H](n2cnc3cc(-c4ccc(Cl)cc4)sc3c2=O)C1)[C@H]1CCN(C2CCOCC2)C1`, for which the IC50 turned out to be 23 nM in series [1] and 22500 nM against Cytochrome P450 2D6. Further, the Ki in series [2] worked out at 3 nM. This molecule returned a CLint scaled in series [3] of 24 mL/min/kg.

In the case of `CN(C(=O)N1CC[C@H](n2cnc3cc(-c4ccc(Cl)cc4)sc3c2=O)C1)[C@H]1CCN(CC(=O)C(C)(C)C)C1`, the concentration for half-maximal inhibition (IC50) in series [1] came out at 44 nM. The molecule also came in with a Ki in series [2] of 17 nM.

The molecule `CN(C(=O)N1CC[C@H](n2cnc3cc(-c4ccc(Cl)cc4)sc3c2=O)C1)[C@H]1CCN(CC2CCOCC2)C1` yielded an IC50 in series [1] of 11 nM. Besides, the inhibitory constant (Ki) in series [2] came to 7 nM.

In the case of `CN(C(=O)N1CC[C@H](n2cnc3cc(-c4ccc(Cl)cc4)sc3c2=O)C1)[C@H]1CCN(CCCc2ccccc2)C1`, the values for the IC50 (in series [1]; on Cytochrome P450 2D6) were 31 nM and 8600 nM, respectively. The molecule also displayed a Ki in series [2] of 6 nM. Besides, the CLint scaled in series [3] came out at 41 mL/min/kg.

As for `CN(C(=O)N1CC[C@@H](n2cnc3cc(-c4ccc(Cl)cc4)sc3c2=O)C1)[C@@H]1CCN(C2CCOCC2)C1`, affinity in series [2] was put at a Ki of 69 nM.

For `CN(C(=O)N1CC[C@H](n2cnc3cc(-c4ccc(Cl)cc4)sc3c2=O)C1)[C@H]1CCN(CCC2CCOCC2)C1`, in series [1], the IC50 came to 11 nM. The molecule further displayed a Ki in series [2] of 7 nM.

In series [2], `CN1CC[C@H](N(C)C(=O)N2CC[C@H](n3cnc4cc(-c5ccc6c(c5)OCCO6)sc4c3=O)C2)C1` returned a Ki of 143 nM.

For `Cc1ccc(-c2cc3ncn([C@H]4CCN(C(=O)N(C)[C@H]5CCN(C6CCOCC6)C5)C4)c(=O)c3s2)c(C)c1`, in series [2], affinity was put at a Ki of 70 nM.

The molecule `CN(C(=O)N1CC[C@H](n2cnc3cc(-c4ccc(Cl)cc4)sc3c2=O)C1)[C@H]1CCN(CC(=O)c2ccc(OC(F)(F)F)cc2)C1` had an inhibition constant Ki in series [2] of 80 nM.

`CN(C(=O)N1CC[C@H](n2cnc3cc(-c4ccc(Cl)cc4)sc3c2=O)C1)[C@H]1CCN(C2CCCC2)C1` yielded an IC50 in series [1] of 13 nM. Further, in series [2], the affinity corresponds to a Ki of 4 nM.

As to `CN(C(=O)N1CC[C@H](n2cnc3cc(-c4ccc(Cl)cc4)sc3c2=O)C1)[C@H]1CCNC1`, the IC50 in series [1] stood at 29 nM. Moreover, the affinity in series [2], expressed as Ki, was 17 nM.

Turning to `Cc1ccc(-c2cc3ncn([C@H]4CCN(C(=O)N(C)[C@H]5CCN(C)C5)C4)c(=O)c3s2)c(C)c1`, the Ki in series [2] amounted to 49 nM.

As for `CN(C(=O)N1CC[C@H](n2cnc3cc(-c4ccc(Cl)cc4)sc3c2=O)C1)[C@H]1CCN(CC2CCCCC2)C1`, the IC50 in series [1] was 53 nM. The molecule further returned a Ki in series [2] of 50 nM.

Consider `CN(C(=O)N1CC[C@H](n2cnc3cc(-c4ccc(Cl)cc4)sc3c2=O)C1)[C@H]1CCN(C2CCC(C)(C)CC2)C1`, for which the IC50 in series [1] was determined as 10 nM; against Cytochrome P450 2D6, 3400 nM. Besides, the Ki in series [2] came to 2 nM.

Turning to `CN(C(=O)N1CC[C@H](n2cnc3cc(-c4ccc(Cl)cc4)sc3c2=O)C1)[C@H]1CCN(C2CCC2)C1`, in series [1], the IC50 turned out to be 9 nM. Further, the Ki in series [2] amounted to 1 nM.

In series [2], `CCOc1ccc(-c2cc3ncn([C@H]4CCN(C(=O)N(C)[C@H]5CCN(C6CCOCC6)C5)C4)c(=O)c3s2)c(Cl)c1` came in with a Ki of 14 nM.

`COc1ccc(-c2cc3ncn([C@H]4CCN(C(=O)N(C)[C@H]5CCN(C)C5)C4)c(=O)c3s2)cc1`: the Ki in series [2] came out at 21 nM.

With `CN(C(=O)N1CC[C@H](n2cnc3cc(-c4ccc(Cl)cc4)sc3c2=O)C1)[C@H]1CCN(CC2CCOC2)C1` (some centres not stated), the IC50 in series [1] was 10 nM. For the same molecule, in series [2], the inhibitory constant (Ki) is 4 nM.

Molecule `Cc1ccc(-c2cc3ncn([C@H]4CCN(C(=O)N(C)[C@H]5CCN(C6CCOCC6)C5)C4)c(=O)c3s2)cc1` yielded a Ki in series [2] of 14 nM.

Molecule `CCOc1ccc(-c2cc3ncn([C@H]4CCN(C(=O)N(C)[C@H]5CCN(C)C5)C4)c(=O)c3s2)c(Cl)c1` had a Ki in series [2] of 26 nM.

In series [2], `CN(C(=O)N1CC[C@@H](n2cnc3cc(-c4ccc(Cl)cc4)sc3c2=O)C1)[C@H]1CCN(C2CCOCC2)C1` displayed a Ki of 154 nM.

Turning to `CCc1ccc(-c2cc3ncn([C@H]4CCN(C(=O)N(C)[C@H]5CCN(C)C5)C4)c(=O)c3s2)cc1`, at CYP2D6, 120 µM produced 42% inhibition. Further, the Ki in series [2] stood at 5 nM. Also, the CLint scaled in series [3] came to 200 mL/min/kg.

`COc1ccc(-c2cc3ncn([C@H]4CCN(C(=O)N(C)[C@H]5CCN(C)C5)C4)c(=O)c3s2)c(C)c1`: the affinity in series [2] corresponds to a Ki of 46 nM.

For `CCc1ccc(-c2cc3ncn([C@H]4CCN(C(=O)N(C)[C@H]5CCN(C6CCOCC6)C5)C4)c(=O)c3s2)cc1`, in series [2], affinity was put at a Ki of 8 nM. The molecule further had an Activity on Cytochrome P450 2D6 of 57 µM. In series [3], this molecule gave a CLint scaled of 85 mL/min/kg.

The molecule `CN(C(=O)N1CC[C@H](n2cnc3cc(-c4ccc(C(F)(F)F)cc4)sc3c2=O)C1)[C@H]1CCN(C2CCOCC2)C1` had a Ki in series [2] of 19 nM.

Consider `CN(C(=O)N1CC[C@H](n2cnc3cc(-c4ccc5c(c4)OCCO5)sc3c2=O)C1)[C@H]1CCN(C2CCOCC2)C1`, for which, in series [2], the Ki was found to be 45 nM.

Take `CN(C(=O)N1CC[C@H](n2cnc3cc(-c4ccc(OC(F)(F)F)cc4)sc3c2=O)C1)[C@H]1CCN(C2CCOCC2)C1`: the Ki in series [2] stood at 18 nM.

As for `CN1CC[C@H](N(C)C(=O)N2CC[C@H](n3cnc4cc(-c5ccc(OC(F)(F)F)cc5)sc4c3=O)C2)C1`, the Ki in series [2] came to 39 nM.

In series [2], `COc1ccc(-c2cc3ncn([C@H]4CCN(C(=O)N(C)[C@H]5CCN(C6CCOCC6)C5)C4)c(=O)c3s2)c(C)c1` had an inhibition constant Ki of 28 nM.

Regarding `CN(C(=O)N1CCC(n2cnc3cc(-c4ccc(Cl)cc4)sc3c2=O)C1)[C@@H]1CCN(C2CCOCC2)C1` (single isomer, unassigned), the affinity in series [2], expressed as Ki, was 21 nM.

`CN1CC[C@H](N(C)C(=O)N2CC[C@H](n3cnc4cc(-c5ccc(Cl)cc5)sc4c3=O)C2)C1` displayed an IC50 in series [1] of 20 nM. The molecule also came in with a Ki in series [2] of 10 nM. The molecule also had an Activity at Cytochrome P450 2D6 of 99 µM. Further, the CLint scaled in series [3] worked out at 16 mL/min/kg.

One may read the IC50 as the concentration at which inhibition is half-maximal. The low end stands for higher potency, the high end for lower potency. As usually defined, the Ki is a dissociation constant, usually derived from enzyme kinetics or from competition with a known ligand. Read a high Ki as lower affinity. As usually defined, the CLint scaled is the rate of metabolic loss divided by the concentration. A lower CLint scaled goes with greater metabolic stability. As usually defined, the inhibition is the relative decrease from the control value, in per cent. A lower inhibition goes with a response near the control.
